Patent publication US10294234B2, “HIV inhibitor compounds” (priority 2017, dated 2019)

Assays:
[1] = test system: HIV-1 (IIIB) in MT-4 cells; assay: MT-4 HIV assay; format: cell-based; details: Human immunodeficiency virus 1, MT4, 120 h; HIV-1 (IIIB), MT-4 cells, 5 days, Cell Titer Glo; read-out: EC50
Summary of the method: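 Antiviral activity was read by Cell Titer Glo after a 5-day, 37 °C culture of MT-4 cells pre-infected with a 1:250 dilution of HIV-1 (IIIB). Compounds were tested as threefold dilution series in complete RPMI. Controls were no drug, mock infection and 5 uM AZT.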

[2] = microsomes
Summary of the method: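 Each compound (1 uM) is incubated in duplicate with 0.5 mg/mL liver microsomal protein from dog, rat or human plus NADPH-regenerating system. Samples taken at 2, 12, 25, 45 and 65 minutes are deproteinised and quantified by LC/MS/MS. Half-life gives Clint.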

SMILES	EC50 [1] [nM]	Human Pred Cl. [2] [L/H/kg]	Rat. Pred. Cl. [2] [L/H/kg]	Dog. Pred. Cl. ([2]; dog) [L/H/kg]
COC(=O)N[C@H](C(=O)N[C@@H](Cc1ccc(C#Cc2ccc(N3CC4COCC(C3)N4C3COC3)nc2)cc1)[C@@H](O)CN(Cc1c(F)cc(-c2ccccn2)cc1F)NC(=O)[C@@H](NC(=O)OC)C(C)(C)C(F)(F)F)C(C)(C)C(F)(F)F [Example 179, Methyl ((5S,8S,9S,14S)-11-(2,6-difluoro-4-(pyridin-2-yl)benzyl)-16,16,16-trifluoro-9-hydroxy-15,15-dimethyl-8-(4-((6-(9-(oxetan-3-yl)-3-oxa-7,9-diazabicyclo[3.3.1]nonan-7-yl)pyridin-3-yl)ethynyl)benzyl)-3,6,13-trioxo-5-(1,1,1-trifluoro-2-methylpropan-2-yl)-2-oxa-4,7,11,12-tetraazahexadecan-14-yl)carbamate]	3.55	0.33	0.27	–
COC(=O)N[C@H](C(=O)N[C@@H](Cc1ccc(C#Cc2ccc(N3CC4CCC(C3)N4C3COC3)nc2)cc1)[C@@H](O)CN(Cc1c(F)cc(-c2ccn(C(F)F)n2)cc1F)NC(=O)[C@@H](NC(=O)OC1COC1)C(C)(C)C)C(C)(C)C(F)(F)F [Example 184, methyl ((2S)-1-(((2S,3S)-4-(1-(4-(1-(difluoromethyl)-1H-pyrazol-3-yl)-2,6-difluorobenzyl)-2-((S)-3,3-dimethyl-2-(((oxetan-3-yloxy)carbonyl)amino)butanoyl)hydrazinyl)-3-hydroxy-1-(4-((6-(8-(oxetan-3-yl)-3,8-diazabicyclo[3.2.1]octan-3-yl)pyridin-3-yl)ethynyl)phenyl)butan-2-yl)amino)-4,4,4-trifluoro-3,3-dimethyl-1-oxobutan-2-yl)carbamate]	3.66	<0.11	<0.18	–
CCC(=O)N[C@H](C(=O)NN(Cc1c(F)cc(-c2ccn(C(F)F)n2)cc1F)C[C@H](O)[C@H](Cc1ccc(C#Cc2ccc(N3CC4CCC(C3)N4C3COC3)nc2)cc1)NC(=O)[C@@H](NC(=O)OC)C(C)(C)C(F)(F)F)C(C)(C)C [Example 185, Methyl ((2S)-1-(((2S,3S)-4-(1-(4-(1-(difluoromethyl)-1H-pyrazol-3-yl)-2,6-difluorobenzyl)-2-((S)-3,3-dimethyl-2-propionamidobutanoyl)hydrazinyl)-3-hydroxy-1-(4-((6-(8-(oxetan-3-yl)-3,8-diazabicyclo[3.2.1]octan-3-yl)pyridin-3-yl)ethynyl)phenyl)butan-2-yl)amino)-4,4,4-trifluoro-3,3-dimethyl-1-oxobutan-2-yl)carbamate]	2.58	0.32	0.31	–
COC(=O)N[C@H](C(=O)N[C@@H](Cc1ccc(C#Cc2cnc(N3CC4CCC(C3)N4C3COC3)nc2)cc1)[C@@H](O)CN(Cc1c(F)cc(-c2ccn(C(F)F)n2)cc1F)NC(=O)[C@@H](NC(=O)C1CC1)C(C)(C)C(F)(F)F)C(C)(C)C(F)(F)F [Example 186, Methyl ((2S)-1-(((2S,3S)-4-(2-((S)-2-(cyclopropanecarboxamido)-4,4,4-trifluoro-3,3-dimethylbutanoyl)-1-(4-(1-(difluoromethyl)-1H-pyrazol-3-yl)-2,6-difluorobenzyl) hydrazinyl)-3-hydroxy-1-(4-((2-(8-(oxetan-3-yl)-3,8-diazabicyclo[3.2.1]octan-3-yl)pyrimidin-5-yl)ethynyl)phenyl)butan-2-yl)amino)-4,4,4-trifluoro-3,3-dimethyl-1-oxobutan-2-yl)carbamate]	4.74	<0.11	–	–
COC(=O)N[C@H](C(=O)NN(Cc1c(F)cc(-c2ccn(C(F)F)n2)cc1F)C[C@H](O)[C@H](Cc1ccc(-c2cnc(N3CC4CCC(C3)N4C3COC3)nc2)cc1)NC(=O)[C@@H](NC(=O)OC)C(C)(C)C(F)(F)F)C(C)(C)C [Example 192, methyl ((5S,8S,9S,14S)-11-(4-(1-(difluoromethyl)-1H-pyrazol-3-yl)-2,6-difluorobenzyl)-9-hydroxy-15,15-dimethyl-8-(4-(2-(8-(oxetan-3-yl)-3,8-diazabicyclo[3.2.1]octan-3-yl)pyrimidin-5-yl)benzyl)-3,6,13-trioxo-5-(1,1,1-trifluoro-2-methylpropan-2-yl)-2-oxa-4,7,11,12-tetraazahexadecan-14-yl)carbamate]	2.89	0.22	0.36	1.04
COC(=O)N[C@H](C(=O)N[C@@H](Cc1ccc(-c2ccc(N3CC4CCC(C3)N4C3COC3)nc2)cc1)[C@@H](O)CN(Cc1c(F)cc(-c2ccn(CC(F)F)n2)cc1F)NC(=O)[C@@H](NC(=O)OC)C(C)(C)C(F)(F)F)C(C)(C)C(F)(F)F [Example 195, methyl ((5S,8S,9S,14S)-11-(4-(1-(2,2-difluoroethyl)-1H-pyrazol-3-yl)-2,6-difluorobenzyl)-16,16,16-trifluoro-9-hydroxy-15,15-dimethyl-8-(4-(6-(8-(oxetan-3-yl)-3,8-diazabicyclo[3.2.1]octan-3-yl)pyridin-3-yl)benzyl)-3,6,13-trioxo-5-(1,1,1-trifluoro-2-methylpropan-2-yl)-2-oxa-4,7,11,12-tetraazahexadecan-14-yl)carbamate]	2.76	0.12	0.52	–
COC(=O)N[C@H](C(=O)N[C@@H](Cc1ccc(-c2cnc(N3CC4CCC(C3)N4C3COC3)nc2)cc1)[C@@H](O)CN(Cc1c(F)cc(-c2ccn(CC(F)F)n2)cc1F)NC(=O)[C@@H](NC(=O)OC)C(C)(C)C(F)(F)F)C(C)(C)C(F)(F)F [Example 197, Methyl ((5S,8S,9S,14S)-11-(4-(1-(2,2-difluoroethyl)-1H-pyrazol-3-yl)-2,6-difluorobenzyl)-16,16,16-trifluoro-9-hydroxy-15,15-dimethyl-8-(4-(2-(8-(oxetan-3-yl)-3,8-diazabicyclo[3.2.1]octan-3-yl)pyrimidin-5-yl)benzyl)-3,6,13-trioxo-5-(1,1,1-trifluoro-2-methylpropan-2-yl)-2-oxa-4,7,11,12-tetraazahexadecan-14-yl)carbamate]	2.61	<0.11	0.32	–
COC(=O)N[C@H](C(=O)N[C@@H](Cc1ccc(-c2cnc(N3CC4CCC(C3)N4C3COC3)nc2)cc1)[C@@H](O)CN(Cc1c(F)cc(-c2ccn(C3CC3)n2)cc1F)NC(=O)[C@@H](NC(=O)OC)C(C)(C)C(F)(F)F)C(C)(C)C(F)(F)F [Example 198, methyl ((5S,8S,9S,14S)-11-(4-(1-cyclopropyl-1H-pyrazol-3-yl)-2,6-difluorobenzyl)-16,16,16-trifluoro-9-hydroxy-15,15-dimethyl-8-(4-(2-(8-(oxetan-3-yl)-3,8-diazabicyclo[3.2.1]octan-3-yl)pyrimidin-5-yl)benzyl)-3,6,13-trioxo-5-(1,1,1-trifluoro-2-methylpropan-2-yl)-2-oxa-4,7,11,12-tetraazahexadecan-14-yl)carbamate]	2.19	<0.11	0.33	–
COC(=O)N[C@H](C(=O)N[C@@H](Cc1ccc(-c2ccc3nc(N4CC5CCC(C4)N5C4COC4)ccc3n2)cc1)[C@@H](O)CN(Cc1c(F)cc(-c2ccn(C(F)F)n2)cc1F)NC(=O)[C@@H](NC(=O)OC)C(C)(C)C(F)(F)F)C(C)(C)C(F)(F)F [Example 200, Methyl ((5S,8S,9S,14S)-11-(4-(1-(difluoromethyl)-1H-pyrazol-3-yl)-2,6-difluorobenzyl)-16,16,16-trifluoro-9-hydroxy-15,15-dimethyl-8-(4-(6-(8-(oxetan-3-yl)-3,8-diazabicyclo[3.2.1]octan-3-yl)-1,5-naphthyridin-2-yl)benzyl)-3,6,13-trioxo-5-(1,1,1-trifluoro-2-methylpropan-2-yl)-2-oxa-4,7,11,12-tetraazahexadecan-14-yl)carbamate]	4.36	<0.11	0.19	–
COC(=O)N[C@H](C(=O)N[C@@H](Cc1ccc(-c2cnc(N3CC4CCC(C3)N4C3COC3)nc2)cc1)[C@@H](O)CN(Cc1c(F)cc(-c2ncccn2)cc1F)NC(=O)[C@@H](NC(=O)OC)C(C)(C)C(F)(F)F)C(C)(C)C(F)(F)F [Example 201, Methyl ((5S,8S,9S,14S)-11-(2,6-difluoro-4-(pyrimidin-2-yl)benzyl)-16,16,16-trifluoro-9-hydroxy-15,15-dimethyl-8-(4-(2-(8-(oxetan-3-yl)-3,8-diazabicyclo [3.2.1]octan-3-yl)pyrimidin-5-yl)benzyl)-3,6,13-trioxo-5-(1,1,1-trifluoro-2-methylpropan-2-yl)-2-oxa-4,7,11,12-tetraazahexadecan-14-yl)carbamate]	2.67	0.27	0.49	–
COC(=O)N[C@H](C(=O)N[C@@H](Cc1ccc(-c2ccc(N3CC4CCC(C3)N4C3COC3)nc2)cc1)[C@@H](O)CN(Cc1c(F)cc(-c2ccc(N3CC4CCC(C3)N4C3COC3)nc2)cc1F)NC(=O)[C@@H](NC(=O)OC)C(C)(C)C(F)(F)F)C(C)(C)C(F)(F)F [Example 203, Methyl ((5S,8S,9S,14S)-11-(2,6-difluoro-4-(6-(8-(oxetan-3-yl)-3,8-diazabicyclo [3.2.1]octan-3-yl)pyridin-3-yl)benzyl)-16,16,16-trifluoro-9-hydroxy-15,15-dimethyl-8-(4-(6-(8-(oxetan-3-yl)-3,8-diazabicyclo[3.2.1]octan-3-yl)pyridin-3-yl)benzyl)-3,6,13-trioxo-5-(1,1,1-trifluoro-2-methylpropan-2-yl)-2-oxa-4,7,11,12-tetraazahexadecan-14-yl)carbamate]	5.02	0.32	1.09	–
